In US20250345512A1, “COMBINATION SODIUM-GLUCOSE COTRANSPORTER INHIBITOR (SGLTI) INSULIN THERAPY FOR GLYCEMIC CONTROL IN TYPE 1 DIABETES” (University of Virginia Patent Foundation, priority 2022, published 2025):

System: participants with T1D
Assay: Randomized crossover clinical trial (NCT04201496): CGM glycemic outcomes with 5 mg daily empagliflozin adjunctive to AID (Control-IQ, CIQ) or PLGS (Basal-IQ, BIQ)
Format: in vivo, human
Conditions: for Difference (95% CI): daytime glucose % Time in range of 70 to 180 mg/dL: adjusted for pre-randomization HbA1c
Procedure: FIG. 2 presents a study analysis relative to baseline, control IQ (CIQ) (e.g., AID), and basal IQ (BIQ) (e.g., PLGS) implementation, according to investigation that is demonstrable of one or more embodiments herein. Therein, an experimental arm (G1, G2) providing an initial daily dose of 5 mg empagliflozin (EMPA) is depicted against a control arm (G3, G4) without such dosing (NOEMPA). Relative characteristics of the analysis are provided below.
Study Design: A single-center, randomized, controlled, unblinded, crossover clinical trial (NCT04201496) compared four parallel groups, two groups in the experimental arm (EMPA) with 5 mg daily empagliflozin as adjunctive therapy to PLGS or AID, and two groups in the control arm (NOEMPA) with no drug and with a PLGS system (Basal-IQ, Tandem Diabetes Care) or AID system (Control-IQ, Tandem Diabetes Care). The groups within each arm differed from one another in the order of the randomly assigned crossover technological intervention, relative to PLGS being followed by AID or AID being followed by PLGS, respectively (FIG. 4). The study protocol was approved by the University of Virginia Institutional Review Board (IRB). An investigational device exemption (IDE), including an investigational new drug (IND) application for empagliflozin, was approved by the FDA. Safety aspects were overseen by an external data and safety monitoring board (DSMB). Participants: Major inclusion criteria were T1D treated with insulin for at least one year, use of continuous subcutaneous insulin infusion therapy for at least six months, age 18-65 yrs., no use of glucose lowering agents other than insulin, and Hb1Ac<9% (75 mmol/mol). Randomization: A (1:1:1:1) randomization assigned participants to either Group 1, AID-EMPA (4 weeks) followed by PLGS-EMPA (2 weeks), Group 2, PLGS-EMPA (2 weeks) followed by AID-EMPA (4 weeks), Group 3, AID-NOEMPA (4 weeks) followed by PLGS-NOEMPA (2 weeks), and Group 4, PLGS-NOEMPA (2 weeks) followed by AID-NOEMPA (4 weeks). Procedures: After confirmation of eligibility, participants underwent study equipment and medication training (experimental arm), or only study equipment training (control arm). Study equipment consisted of Dexcom G6® CGM (Dexcom Inc., San Diego, CA), Contour® Next blood glucose (Ascensia Diabetes Care, Basel, Switzerland) and Precision Xtra® blood ketone meters (Abbott, Alameda, CA) with their respective test strips; infusion sets, and the use of the t:slim X2™ insulin pump with Basal-IQ or Control-IQ technologies (Tandem Diabetes Care, San Diego, CA), according to randomization. […] Participants in the experimental arm were asked to record two days of baseline ketone values before initiating the use of the study drug. Thereafter, participants were directed to use the study CGM with EMPA for 1-2 weeks. A tolerance to the medication was assessed prior to the starting of the next study phase, including adherence to the protocol, ketone testing 2-4 times per day with monitored values not greater than 0.6 mmol/L on at least two successive occasions (the first testing upon waking in a fasted state), no adverse events relating to perineal infection or symptomatic postural hypotension, and no evidence of significant hypoglycemia <54 mg/dL, or any other listed adverse effects of the medication. Participants in the control arm were directed to use the study CGM for 1-2 weeks. Sample Size: The total sample size was projected to be 40 participants, assuming 1) 1:1:1:1 randomization; 2) 90% power and type 1 error a=0.01, further reinforcing the feasibility of hierarchical analyses. The projected recruitment sample was n=50, to accommodate up to 20% attrition rate without sacrificing statistical power. Analytical methods: For the primary analysis, TIR during the day in the 4-week AID period was compared between the two EMPA groups versus the two NOEMPA groups using a linear mixed-effects regression model while adjusting for pre-randomization HbAlc and age. […]

[1] = EMPA minus NOEMPA on same insulin system, adjusted for HbA1c
[2] = daytime (7:00-23:00), head prints CIQ-EMPA vs. BIQ-NOEMPA
[3] = daytime (7:00-23:00), CIQ-EMPA vs. BIQ-NOEMPA, BIQ-EMPA vs. CIQ-NOEMPA
[4] = daytime (7:00-23:00), CIQ-EMPA vs. CIQ-NOEMPA, BIQ-EMPA vs. BIQ-NOEMPA
[5] = daytime (7:00-23:00), n = 16, mean ± SD
[6] = daytime (7:00-23:00), n = 16, median (IQR)
[7] = overall, head prints CIQ-EMPA vs. BIQ-NOEMPA

Structure (SMILES): OC[C@H]1O[C@@H](c2ccc(Cl)c(Cc3ccc(O[C@H]4CCOC4)cc3)c2)[C@H](O)[C@@H](O)[C@@H]1O [CIQ-EMPA, empagliflozin]
- 24/7 HBGI - median (IQR) (24/7, n = 17): 2.7(2-4.4)
- 24/7 LBGI - median (IQR) (24/7, n = 17): 0.5(0.4-0.6)
- 24/7 glucose level <70 mg/dL (<3.9 mmol/L) - median % time (IQR) (24/7, n = 17): 1.1(0.5-1.5) %
- 24/7 glucose level <70 mg/dL (<3.9 mmol/L) - median % time (IQR) (24/7, n = 17, listed as AID-EMPA): 1.1(0.5-1.5) %
- 24/7 Mean glucose level - (24/7, n = 17, mean ± SD): 137 ± 19 mg/dL
- 24/7 Mean glucose level - (24/7, n = 17, mean ± SD, listed as AID-EMPA): 137 mg/dL
- daytime TIR mean adjusted difference, amounting to hours per day (AID-EMPA vs AID-NOEMPA, daytime 7:00 to 23:00 h): 1.6 hours per day
- Difference (95% CI): 24/7 HBGI [1]: −2.5(−5.3 to 0.2)
- Difference (95% CI): 24/7 LBGI [1]: 0.06(−0.4 to 0.5)
- Difference (95% CI): 24/7 Mean glucose level [1]: −17.3(−35.4 to 0.8) mg/dL
- Difference (95% CI): 24/7 glucose level <70 mg/dL % time [1]: −1.1(−3.2 to 0.9) percentage points
- Difference (95% CI): Daytime CGM CV [1]: −3.3(−6.1 to −0.5) %
- Difference (95% CI): Daytime CGM SD [1]: −9.3(−17.8 to −0.93) mg/dL
- Difference (95% CI): 24/7 glucose level <70 mg/dL % time (EMPA minus NOEMPA on same insulin system, adjusted for HbA1c, listed as AID-EMPA): −1.1 percentage points
- Difference (95% CI): daytime glucose % Time in range of 70 to 180 mg/dL (EMPA minus NOEMPA on same insulin system): 9.9(0.6 to 19.1) percentage points
- Difference (95% CI): daytime glucose % Time in range of 70 to 180 mg/dL (EMPA minus NOEMPA on same insulin system, listed as AID-EMPA): +9.9 percentage points
- Primary: daytime glucose % Time in range of 70 to 180 mg/dL (3.9-10.0 mmol/L) (daytime 7:00 to 23:00 h, n = 17, mean ± SD): 81 ± 10%
- Primary: daytime glucose % Time in range of 70 to 180 mg/dL (3.9-10.0 mmol/L) (daytime 7:00 to 23:00 h, n = 17, mean ± SD, listed as AID-EMPA): 81+10%
- Difference (95% CI): % CGM time 70-140 mg/dL (<3.9-7.8 mmol/L) [2]: −1.4 percentage points
- Difference (95% CI): % CGM time <60 mg/dL (<3.3 mmol/L) [2]: −0.5 percentage points
- Difference (95% CI): % CGM time >180 mg/dL (>10.0 mmol/L) [2]: −0.8 percentage points
- Difference (95% CI): % CGM time >250 mg/dL (>13.9 mmol/L) [2]: −1.6 percentage points
- Difference (95% CI): % CGM time >300 mg/dL (>16.7 mmol/L) [2]: −0.9 percentage points
- Difference (95% CI): CGM HBGI [2]: −6.3
- Difference (95% CI): CGM LBGI [2]: −0.3
- Difference (95% CI): Mean CGM glucose [2]: 0.2 mg/dL
- Difference (95% CI): % CGM time <70 mg/dL (<3.9 mmol/L) (daytime (7:00-23:00), head prints CIQ-EMPA vs. BIQ-NOEMPA, listed as AID-EMPA): −1 percentage points
- Difference (95% CI): % CGM time 70-140 mg/dL (<3.9-7.8 mmol/L) [3]: 16.2 percentage points
- Difference (95% CI): % CGM time <60 mg/dL (<3.3 mmol/L) [3]: −0.6 percentage points
- Difference (95% CI): % CGM time <70 mg/dL (<3.9 mmol/L) [3]: −0.7 percentage points
- Difference (95% CI): % CGM time >180 mg/dL (>10.0 mmol/L) [3]: −17.6 percentage points
- Difference (95% CI): % CGM time >250 mg/dL (>13.9 mmol/L) [3]: −9.2 percentage points
- Difference (95% CI): % CGM time >300 mg/dL (>16.7 mmol/L) [3]: −3.6 percentage points
- Difference (95% CI): CGM HBGI [3]: −4.4
- Difference (95% CI): CGM LBGI [3]: 0
- Difference (95% CI): CGM SD [3]: -15.5 mg/dL
- Difference (95% CI): Mean CGM glucose [3]: -23.6 mg/dL
- Difference (95% CI): % CGM time <50 mg/dL (<2.8 mmol/L) [4]: −0.2 percentage points
- Difference (95% CI): % CGM time <60 mg/dL (<3.3 mmol/L) [4]: −0.7 percentage points
- Difference (95% CI): % CGM time >180 mg/dL (>10.0 mmol/L) [4]: −10.3 percentage points
- Difference (95% CI): % CGM time >250 mg/dL (>13.9 mmol/L) [4]: −3.8 percentage points
- Difference (95% CI): % CGM time >300 mg/dL (>16.7 mmol/L) [4]: −1.3 percentage points
- Difference (95% CI): CGM CV (%) [4]: −3.3%
- Difference (95% CI): CGM HBGI [4]: −2.2
- Difference (95% CI): CGM LBGI [4]: 0
- Difference (95% CI): CGM SD [4]: -9.3 mg/dL
- Difference (95% CI): Mean CGM glucose [4]: -14.6 mg/dL
- % CGM time 70-140 mg/dL (3.9-7.8 mmol/L) [5]: 56.7 ± 13.4%
- % CGM time 70-180 mg/dL (3.9-10.0 mmol/L) [5]: 80.6 ± 10.5%
- CGM CV (%) [5]: 30.4 ± 3.5%
- CGM SD [5]: 42.6 ± 9.7 mg/dL
- Mean CGM glucose [5]: 139 ± 19 mg/dL
- % CGM time <50 mg/dL (<2.8 mmol/L) [6]: 0(0-0.1) %
- % CGM time <60 mg/dL (<3.3 mmol/L) [6]: 0.4(0-0.5) %
- % CGM time <70 mg/dL (<3.9 mmol/L) [6]: 1.2(0.6-1.7) %
- % CGM time >180 mg/dL (>10.0 mmol/L) [6]: 15.8(6.2-26) %
- % CGM time >250 mg/dL (>13.9 mmol/L) [6]: 1.2(0.4-3.7) %
- % CGM time >300 mg/dL (>16.7 mmol/L) [6]: 0(0-0.6) %
- CGM HBGI [6]: 3.4(1.9-5.5)
- CGM LBGI [6]: 0.5(0.4-0.6)
- Daytime CGM CV - % (daytime, n = 17, mean ± SD): 30.4 ± 3.5%
- Daytime CGM SD - (daytime, n = 17, mean ± SD): 42.6 ± 9.8 mg/dL
- Difference: CGM HBGI [7]: −1.1
- Difference: CGM LBGI [7]: −0.3
- Difference: % CGM time <70 mg/dL (<3.9 mmol/L) (overall, head prints CIQ-EMPA vs. BIQ-NOEMPA, listed as AID-EMPA): −1.2 percentage points
